Measurements as given in patent US4618605A, “Process for the production of β-elemonic acid and pharmaceutical preparations containing said acid” (priority 1983, dated 1986).
Like-named read-outs stand apart in the source and are kept apart here.

Tests used:
[1] = tested on: carrageenin paw edema; test: carrageenin rat paw edema test of Hillebrecht (antiphlogistic effectiveness); assay type: in vivo; conditions: for Inhibiting effect (%): rat, after three hours, vs control group
Procedure: 1. The antiphlogistic effectiveness was determined by the rat paw edema test of Hillebrecht (J. Hillebrecht, Arzneim, Forsch. 1954, Vol. 4, p. 607). In this test, rats weighing from 120 g-160 g were given a subplantar dose of carrageenin (0.5% in 0.9% NaCl solution) in an amount of 0.1 ml of solution per paw, using one hind paw of each rat, to produce edema. After administration of the test substance, which as a rule should not exceed a volume of 10 ml/kg body weight, the volume of the paw was determined in an overflow device. After three hours the final value was determined. For each dosage level the experiment was performed with five test and five control animals of one sex and repeated with the same number of animals of the opposite sex. The result is expressed as the percentage inhibition of edema as compared with the control group.

[2] = tested on: CVF paw edema; test: rat paw edema induced by cobra venom factor (CVF); assay type: in vivo; conditions: for Inhibition effect (%): rat, after three hours, vs control group; for ED30: Rattus norvegicus, po, 3 h, read-out: ED30 CVF edema
Procedure: 2. As a further experiment for testing the antiphlogistic effectiveness there was used rat paw edema induced by means of cobra venom factor (CVF). Since CVF produces inflammation by way of activation of the complementary system, inhibiting substances could open up a new kind of working principle for application in inflammatory illnesses.
Edema was provoked by subplantar injection of CVF (10 units in 1 ml NaCl solution 0.9%) in an amount of 0.1 ml of solution per paw, into one hind paw of each of a number of rats weighing from 120-160 g. After administration of the test substance in a volume of 10 ml/kg body weight the volume of the paw was determined in an overflow device. After three hours the final value was determined. For each dose the test was carried out with five test and five control animals of one sex, and repeated with the same number of animals of the opposite sex. The result was expressed as percentage inhibition of the edema compared with the control group.

[3] = tested on: adjuvant arthritis; test: adjuvant arthritis test of Pearson, prophylactic application; assay type: in vivo, Wistar rats; conditions: for inhibition values (%): prophylactic; for ED50: Rattus norvegicus, po, 408 h, read-out: ED50 Adjuvant arthritis prophyl.; for antiphlogistic activity (in words): appraisal from ED50 values in the arthritis test
Procedure: 3. The adjuvant arthritis test of C. M. Pearson, Proc. Soc. Exp. Biol. 91, 95-101 (1956) was carried out as a further relevant animal experiment for the examination of anti-rheumatic substances.
(§1) Ten Wistar rats weighing from 120-150 g were used for each dose. The same number of animals served as a control. Arthritis was induced with 0.5 ml Freud's adjuvant, by subplantar injection. The test lasted 17 days. At the beginning of the test the paw volume of the non-injected hind paw was determined and this was used as a starting value. Further volume measurements were carried out on the 14th and 17th days of the test. For the result the difference between the starting and finishing volumes of the paw, both of the test group and of the control group, was obtained and the inhibition expressed as a percentage. With daily administration from the time of induction of arthritis onwards (prophylactic application) the following inhibition values (%) were obtained: […]

[4] = tested on: adjuvant arthritis; test: adjuvant arthritis test, therapeutic application beginning ten days after induction; assay type: in vivo, Wistar rats; conditions: for inhibition values (%): therapeutic
[5] = tested on: stomach mucosa; test: induction of stomach ulcers (acute stomach mucous tolerability); assay type: in vivo, Wistar rats; conditions: for Effect (ulcer induction): single administration, after 3.5 hours; for Threshold dose Acute stomach mucous tolerability: p.o.
Excerpt: The most frequent side effect in known anti-rheumatics is poor gastrointestinal tolerance with ulcer induction. For this reason β-elemonic acid was examined for the induction of ulcers. The determination of ulcer formation was made according to W. J. R. Whittle, Brit. J. Pharmacology, 1975, Vol. 55, pp. 242-243; L. Mariani, Europ. J. Toxicol. Eviron., 1975, Vol. 8, pp. 335-39; and R. Menguy and L. Desbaillets, Proc. Soc. Bio., Vol. 125, p. 1108. In the tests, for each dose and control ten male Wistar rats (120-150 g, kept fasting for 16 hours) were used. The provocation of bleeding stomach ulcer took place by oral application of the active ingredient. The animals were sacrificed after 3.5 hours, the stomach removed, opened along the larger curvature and stretched on a foam polystyrene plate. The median ulcer factor of the test group and the control group was determined.

[6] = acute peroral toxicity in the mouse; conditions: in vivo
Procedure: Determination of toxicity of β-elemonic acid was carried out on the mouse and the rat. Acute peroral toxicity in the mouse: 4.640 mg/kg.

[7] = tested on: rats; test: dose-range study on rats, daily application for 14 days; assay type: in vivo, rat; conditions: daily for 14 days, 681.0 and 1,000.0 mg/kg body weight
[8] = tested on: young rats; test: comparative side-effect investigation with prednisolone on young rats, 8 days; assay type: in vivo, rat; parameters: key: 0: no effect; (-): weak inhibition; -: definite inhibition; ---: very strong inhibition
Procedure: β-Elemonic acid was compared with prednisolone for determining side-effects. Known antiphlogistic substances can cause undesired side-effects, some of which arise even at therapeutic doses. For this reason a comparative investigation of β-elemonic acid with prednisolone was undertaken (H. J. Lee, M. R. I. Soliman in Science 215 989-991, 1982). Carried out on young rats, the duration of application was 8 days. β-Elemonic acid was administered orally up to a dosage of 316 mg/kg body weight, and prednisolone intramuscularly up to a dosage of 5 mg/kg body weight.

[9] = tested on: adrenal gland; test: adrenal gland weights at termination of the adjuvant arthritis (17-day administration); assay type: in vivo, Wistar rats; conditions: 17-day prophylactic administration
Procedure: as §1

[10] = therapeutic range (therapeutic indices); assay type: in vivo; conditions: for selectivity ratio: in vivo, po
Excerpt: An assessment of the effectiveness of elemonic acid was compared with known substances. A quantitative assessment of β-elemonic acid in comparison with known antiphlogistic substances was made possible by determining the therapeutic ranges, i.e. by the safety with which an active ingredient can be used. […] The therapeutic range is given (1) by the ratio between the LD50 and the ED30 in the CVF paw oedema and (2) by the ratio between the dose threshold value of stomach intolerance and the ED50 in the arthritis model. The ED30 and the ED50 values were determined with the aid of a regression line: […]

[11] = po, Table 9, read-out: LD50 Mouse
[12] = LD50 / ED30 in the CVF paw oedema, read-out: Therapeutic index 1 (3./1.)
[13] = rat, dose threshold value of stomach intolerance / ED50 in the arthritis model, read-out: Therapeutic index 2 (4./1.)

SMILES: CC(C)=CCC[C@H](C(=O)O)[C@@H]1CC[C@]2(C)C3=C(CC[C@@]12C)[C@@]1(C)CCC(=O)C(C)(C)[C@@H]1CC3 [β-Elemonic acid, 13α, 14β, 17α, 20S,-3-Oxo-lanosta-8,24-dien-21-carboxylic acid]
- Inhibiting effect (%) ([1]; 1 mg/kg p.o.): -7%
- Inhibiting effect (%) ([1]; 10 mg/kg p.o.): -21%
- Inhibiting effect (%) ([1]; 100 mg/kg p.o.): -33%
- Inhibition effect (%) ([2]; 1 mg/kg p.o.): -24%
- Inhibition effect (%) ([2]; 10 mg/kg p.o.): -32%
- Inhibition effect (%) ([2]; 100 mg/kg p.o.): -49%
- ED30 [2]: 3.98 mg/kg
- inhibition values (%) ([3]; 14th day p.i., 1 mg/kg p.o.): -55%
- inhibition values (%) ([3]; 14th day p.i., 10 mg/kg p.o.): -62%
- inhibition values (%) ([3]; 14th day p.i., 100 mg/kg p.o.): -165%
- inhibition values (%) ([3]; 17th day p.i., 1 mg/kg p.o.): -38%
- inhibition values (%) ([3]; 17th day p.i., 10 mg/kg p.o.): -47%
- inhibition values (%) ([3]; 17th day p.i., 100 mg/kg p.o.): -92%
- ED50 [3]: 4.64 mg/kg
- inhibition values (%) ([4]; 14th day p.i., 1 mg/kg p.o.): +36%
- inhibition values (%) ([4]; 14th day p.i., 10 mg/kg p.o.): -13%
- inhibition values (%) ([4]; 14th day p.i., 100 mg/kg p.o.): -38%
- inhibition values (%) ([4]; 17th day p.i., 1 mg/kg p.o.): -31%
- inhibition values (%) ([4]; 17th day p.i., 10 mg/kg p.o.): -42%
- inhibition values (%) ([4]; 17th day p.i., 100 mg/kg p.o.): -81%
- inhibition values (in words) ([4]; therapeutic application beginning ten days after induction): pronounced inhibition values
- Effect (ulcer induction) ([5]; 10 mg/kg p.o.): 0
- Effect (ulcer induction) ([5]; 100 mg/kg p.o.): 0
- Effect (ulcer induction) ([5]; 316 mg/kg p.o.): 0
- Threshold dose Acute stomach mucous tolerability [5]: 316.00 mg/kg
- LD50 [6, 11]: 4640 mg/kg
- LD50 ([6]; po, peroral, read-out: Acute peroral toxicity): 4.64 mg/kg
- aggravating side-effects [7]: no occurrences of aggravating side-effects
- Blood picture Leucocytes ([8]; 100 mg/kg orally): 0
- Blood picture Lymphocytes ([8]; 100 mg/kg orally): 0
- Body weight development ([8]; 100 mg/kg orally): (-)
- Liver weights ([8]; 100 mg/kg orally): 0
- Thymus weight ([8]; 100 mg/kg orally): 0
- Blood picture Leucocytes ([8]; 316 mg/kg orally): 0
- Blood picture Lymphocytes ([8]; 316 mg/kg orally): 0
- Body weight development ([8]; 316 mg/kg orally): (-)
- Liver weights ([8]; 316 mg/kg orally): 0
- Thymus weight ([8]; 316 mg/kg orally): (-)
- adrenal gland weights [9]: inside the normal limits
- selectivity ratio [10, 12]: 1160
- selectivity ratio [10, 13]: 68
- Therapeutic indices 1 and 2 compared with comparison substances (in words) ([10]; vs phenylbutazone and indomethacin): several times higher

SMILES: CCCCC1C(=O)N(c2ccccc2)N(c2ccccc2)C1=O [Phenylbutazone]
- Inhibiting effect (%) ([1]; 100 mg/kg p.o.): -41%
- reduction of edema (in words) ([1]; carrageenin paw edema test in rats): a reduction of edema only at a fairly high dosage level
- Inhibition effect (%) ([2]; 1 mg/kg p.o.): +10%
- Inhibition effect (%) ([2]; 10 mg/kg p.o.): -28%
- Inhibition effect (%) ([2]; 100 mg/kg p.o.): -34%
- ED30 [2]: 37.7 mg/kg
- inhibition of CVF edema (in words) ([2]; compared with β-elemonic acid): weaker inhibition values
- inhibition values (%) ([3]; 14th day p.i., 10 mg/kg p.o.): -42%
- inhibition values (%) ([3]; 14th day p.i., 31,6 mg/kg p.o.): -57%
- inhibition values (%) ([3]; 14th day p.i., 82,5 mg/kg p.o.): -58%
- inhibition values (%) ([3]; 17th day p.i., 10 mg/kg p.o.): -31%
- inhibition values (%) ([3]; 17th day p.i., 31,6 mg/kg p.o.): -51%
- inhibition values (%) ([3]; 17th day p.i., 82,5 mg/kg p.o.): -43%
- ED50 ([3]; p.o., regression line): 47.5 mg/kg
- antiphlogistic activity (in words) [3]: weakly active
- LD50 ([6]; oral, comparison, read-out: LD50): 465 mg/kg

SMILES: C[C@]12C=CC(=O)C=C1CC[C@@H]1[C@@H]2[C@@H](O)C[C@@]2(C)[C@H]1CC[C@]2(O)C(=O)CO [Prednisolone, reference compound]
- Blood picture Leucocytes ([8]; 5 mg/kg intramuscularly): -
- Blood picture Lymphocytes ([8]; 5 mg/kg intramuscularly): -
- Body weight development ([8]; 5 mg/kg intramuscularly): -
- Liver weights ([8]; 5 mg/kg intramuscularly): 0
- Thymus weight ([8]; 5 mg/kg intramuscularly): ---
- Blood picture Leucocytes ([8]; 2,5 mg/kg intramuscularly): 0
- Blood picture Lymphocytes ([8]; 2,5 mg/kg intramuscularly): (-)
- Body weight development ([8]; 2,5 mg/kg intramuscularly): -
- Liver weights ([8]; 2,5 mg/kg intramuscularly): 0
- Thymus weight ([8]; 2,5 mg/kg intramuscularly): ---

SMILES: COc1ccc2c(c1)c(CC(=O)O)c(C)n2C(=O)c1ccc(Cl)cc1 [Indomethacin, reference compound]
- ED30 [2]: 4.58 mg/kg
- ED50 [3]: 0.26 mg/kg
- antiphlogistic activity (in words) [3]: strongly active
- Threshold dose Acute stomach mucous tolerability [5]: 5.62 mg/kg
- LD50 [6, 11]: 40 mg/kg
- selectivity ratio [10, 12]: 8.73
- selectivity ratio [10, 13]: 21.6
